The text below walks through data of publication PMC11940194, “Synthesis, Antiproliferative Activity, and ADME Profiling of Novel Racemic and Optically Pure Aryl-Substituted Purines and Purine Bioisosteres” (Biomolecules, 2025).

Data set [1] concerns normal skin fibroblasts (HFF-1). Put plainly: Cytotoxicity MTT assay, normal skin fibroblasts. The class given is cell-based, human. Particulars: Homo sapiens, HFF-1, 72 h, 72 h incubation, mean ± SD. How it is done:
(§1) The human ATCC tumor cell lines breast adenocarcinoma (MCF7), colorectal carcinoma (HT-29), pancreatic ductal adenocarcinoma (CFPAC-1), hepatocellular carcinoma (HepG2), and normal skin fibroblasts (HFF) derived from ATCC (American Type Culture Collection) were cultured in Dulbecco’s Modified Eagle Medium (DMEM) or Minimum Essential Medium (MEM) supplemented with 10% fetal bovine serum (FBS), 2 mM L-glutamine, 100 U/mL penicillin, and 100 µg/mL streptomycin (Lonza, Basel, Switzerland) in a humidified atmosphere with 5% CO2 at 37 °C. For the experiment, carcinoma cell lines and normal human cell lines were seeded in 96-well microtiter plates at a density of 3000 cells per well and 5000 cells per well, respectively, depending on the doubling time of the specific cell line. The test substances were then added at fivefold, tenfold dilutions (0.01 to 100 µM), freshly prepared in the growth medium on the day of testing, and incubated for a further 72 h. After 72 h of incubation, the growth rate of the cells was determined using the MTT assay according to the manufacturer’s guidelines. […] The IC50 values were calculated from the dose–response curves using linear regression analysis. The experiment was performed in tetraplicates in two individual experiments.
(§2) Newly synthesized compounds were evaluated for their cytotoxic activity in vitro against four human cancer cell lines, including human breast adenocarcinoma (MCF-7), ductal pancreatic adenocarcinoma (CFPAC-1), colorectal carcinoma (HT-29), and hepatocellular carcinoma (HepG2), as well as on non-cancerous skin fibroblasts (HFF-1), to check for non-specific toxicity. Furthermore, 5-Fluorouracil (5-FU) was used as a reference drug. The results are expressed as 50% inhibitory concentration (IC50) values and are listed in Table 2, Table 3, Table 4 and Table 5.
(In general: Tetrazolium dyes change colour on reduction, which living cells bring about.)

Data set [2] has as its system pancreatic ductal adenocarcinoma (CFPAC-1) cells. Put plainly: Antiproliferative MTT assay, CFPAC-1. It is filed as cell-based, human. The note with it: for IC50: Homo sapiens, CFPAC-1, 72 h, 72 h incubation, MTT, mean ± SD; for SI (CFPAC-1): SI = [IC50 HFF]/[IC50 CFPAC-1]. As for the experimental part:
as §1, §2

The test system of data set [3] is colorectal carcinoma (HT-29) cells. Briefly: Antiproliferative MTT assay, HT-29. It is filed as cell-based, human. The note with it: for IC50: Homo sapiens, HT-29, 72 h, 72 h incubation, MTT, mean ± SD; for SI (HT-29): SI = [IC50 HFF]/[IC50 HT-29]. How it is done:
as §1, §2

For data set [4], the system named is hepatocellular carcinoma (HepG2) cells. Put plainly: Antiproliferative MTT assay, HepG2. It is filed as cell-based, human. Particulars: for IC50: Homo sapiens, HepG2, 72 h, 72 h incubation, MTT, mean ± SD; for SI (HepG2): SI = [IC50 HFF]/[IC50 HepG2]. As for the experimental part:
as §1, §2

In data set [5] the test system is P-glycoprotein (human MDR1). Put plainly: MDCKII-MDR1 permeability assay. Particulars: dog, MDCK-MDR1. It is filed as in vitro ADME, canine cells with over-expressed human MDR1 gene. As for the experimental part: MDCKII-hMDR1 cells were obtained from Solvo Biotechnology, Hungary. DMEM, fetal bovine serum, Glutamax-100, Antibiotic/Antimycotic, DMSO, Dulbecco’s phosphate-buffered saline, and MEM Non-essential amino acids were purchased from Sigma (St. Louis, MO, USA). Bi-directional permeability and P-glycoprotein substrate assessments were carried out in Madin-Darby canine epithelial cells with the over-expressed human MDR1 gene (MDCKII-MDR1), coding for P-glycoprotein. Experimental procedures, as well as cell culture conditions, were the same as previously described. Briefly, compounds (10 µM, 1% DMSO v/v) in duplicate were incubated at 37 °C for 60 min with cell monolayer on 24-well Millicell inserts (Millipore, Burlington, MA, USA) with and without the P-glycoprotein inhibitor Elacridar (2 µM, International Laboratory, San Francisco, CA, USA). The inhibition of P-glycoprotein was verified by amprenavir (Moravek Biochemicals Inc, Brea, CA, USA) and monolayer integrity using Lucifer yellow (Sigma, St. Louis, MO, USA). LC-MS/MS measured compound concentrations and Lucifer yellow was measured on an Infinite F500 (Tecan, Männedorf, CH, Switzerland) using excitation of 485 nm and emission of 530 nm.
All samples were quantified using tandem mass spectrometry coupled to liquid chromatography. Samples were analyzed on a Sciex API4000 Triple Quadrupole Mass Spectrometer (Sciex, Division of MDS Inc., Toronto, Canada) coupled to a Shimadzu Nexera X2 UHPLC frontend (Kyoto, Japan). Samples were injected onto a UHPLC column (HALO2 C18, 2.1 × 20 mm, 2 µm or Luna Omega 1.6 µm Polar C18 100A, 30 × 2.1 mm) and eluted with a gradient at 50 °C. The mobile phase was composed of acetonitrile/water mixture (9/1, with 0.1% formic acid) and 0.1% formic acid in deionized water. The flow rate was 0.7 mL/min under gradient conditions, leading to a total run time of 1.5–2 min. A positive ion mode with turbo spray, an ion source temperature of 550 °C, and a dwell time of 150 ms were utilized for mass spectrometric detection. Quantitation was performed using multiple reaction monitoring (MRM) at the specific transitions for each compound.

The test system of data set [6] is breast adenocarcinoma (MCF7) cells. Put plainly: Antiproliferative MTT assay, MCF-7. It is filed as cell-based, human. The note with it: for IC50: Homo sapiens, MCF7, 72 h incubation, MTT, mean ± SD; for SI (MCF-7): SI = [IC50 HFF]/[IC50 MCF-7]. As for the experimental part: as §1, §2

Some results are limits rather than exact numbers.

A word on the IC50: it is the concentration at which inhibition is half-maximal. A word on the Papp B→A: it is how fast a substance crosses the layer from the basolateral side. Usually efflux ratio stands for the permeability from basolateral to apical divided by that in the opposite direction, in the common usage. Broadly, the Papp is the rate of passage across a membrane or cell layer, normalised by area and donor concentration. On to `OCC(c1ccc(Br)cc1)n1cc(Cn2cnc3c(Cl)ncnc32)nn1` (centres unmarked) [Compound 39a, 6-Chloro-9-((1-(2-hydroxy-1-(4-bromophenyl)ethyl)-1H-1,2,3-triazol-4-yl)methyl)-9H-purine], for which the IC50 in data set [1] is 14 ± 4.7 µM; in data set [2], 46 ± 3.8 µM; in data set [3], 31 ± 2.6 µM; in data set [4], 16 ± 5.6 µM; in data set [6], 14 ± 4.8 µM. The “SI (HT-29)” value in data set [3] is given as 0.5. The “SI (HepG2)” value in data set [4] is 0.9. In data set [5] (10 µM, 60 min, 37 °C), this compound gave a Papp B→A at 60 min, 10 µM of 58 ×10⁻⁶ cm/s. For the same compound, the efflux ratio at 60 min, 10 µM in data set [5] (<2 no efflux, >2 active efflux) was found to be 68.1. For the same compound, the Papp at 60 min, 10 µM in data set [5] (permeability class) is not above 2 ×10⁻⁶ cm/s.
Take `O[C@@H](Cn1cc(Cn2ccc3c(Cl)ncnc32)nn1)c1ccc(F)cc1` [Compound (R)-42b, (R)-4-Chloro-7-((1-(2-hydroxy-2-(4-fluorophenyl)ethyl)-1H-1,2,3-triazol-4-yl)methyl)-7H-pyrrolo[2,3-d]pyrimidine]: the IC50 in data set [1] turned out to be 24 ± 2.4 µM; in data set [2] it was 20 ± 0.9 µM; in data set [3] it was 27 ± 1.4 µM; in data set [4] it was 32 ± 6.04 µM; in data set [6], 60 ± 1.2 µM. The “SI (CFPAC-1)” value in data set [2] is on record as 1.2. Besides, in data set [6], the “SI (MCF-7)” value was 0.4.
On to `O[C@@H](Cn1cc(Cn2ccc3c(Cl)ncnc32)nn1)c1ccc(Cl)cc1` [Compound (R)-43b, (R)-4-Chloro-7-((1-(2-hydroxy-2-(4-chlorophenyl)ethyl)-1H-1,2,3-triazol-4-yl)methyl)-7H-pyrrolo[2,3-d]pyrimidine], for which the IC50 in data set [1] was found to be 20 ± 6.5 µM; in data set [2], 32 ± 16.1 µM; in data set [3], 48 ± 4.8 µM; in data set [4], 26 ± 8.2 µM; in data set [6], 35 ± 1.9 µM. The “SI (CFPAC-1)” value in data set [2] was found to be 0.6. For the same compound, the “SI (MCF-7)” value in data set [6] was determined as 0.6.
For the compound `O[C@@H](Cn1cc(Cn2ccc3c(Cl)ncnc32)nn1)c1ccc(C(F)(F)F)cc1` [Compound (R)-45b, (R)-4-Chloro-7-((1-(2-hydroxy-2-(4-(trifluoromethyl)phenyl)ethyl)-1H-1,2,3-triazol-4-yl)methyl)-7H-pyrrolo[2,3-d]pyrimidin], the IC50 stood at 21 ± 3.8 µM in data set [1]; 49 ± 8.7 µM in data set [2]; 45 ± 4 µM in data set [3]; 38 ± 7.6 µM in data set [4]; 43 ± 4.6 µM in data set [6]. Also, the “SI (CFPAC-1)” value in data set [2] came out at 0.4. In addition, in data set [6], the “SI (MCF-7)” value was determined as 0.5.
Take `O[C@H](Cn1cc(Cn2cnc3c(Cl)ncnc32)nn1)c1ccccc1` [Compound (S)-36b, (S)-6-Chloro-9-((1-(2-hydroxy-2-phenylethyl)-1H-1,2,3-triazol-4-yl)methyl)-9H-purine]: the IC50 is more than 100 µM in data set [1]; 32 ± 5.3 µM in data set [2]; 48 ± 4.8 µM in data set [3]; 21 ± 0.8 µM in data set [4]; 33 ± 5.8 µM in data set [6]. Moreover, in data set [3], the “SI (HT-29)” value is on record as more than 2.1. Further, in data set [4], the “SI (HepG2)” value was more than 4.8.
Consider `O[C@H](Cn1cc(Cn2cnc3c(Cl)ncnc32)nn1)c1ccc(F)cc1` [Compound (S)-37b, (S)-6-Chloro-9-((1-(2-hydroxy-2-(4-fluorophenyl)ethyl)-1H-1,2,3-triazol-4-yl)methyl)-9H-purine], for which the IC50 in data set [1] came to 70 ± 19.5 µM; in data set [2] it was 65 ± 5.4 µM; in data set [3], 24 ± 2.9 µM; in data set [4], 45 ± 1.9 µM; in data set [6], 73 ± 2.9 µM. For the same compound, in data set [3], the “SI (HT-29)” value amounted to 2.9. In data set [4], the “SI (HepG2)” value came out at 1.6.
As to `O[C@H](Cn1cc(Cn2cnc3c(Cl)ncnc32)nn1)c1ccc(Cl)cc1` [Compound (S)-38b], the IC50 in data set [1] was 81 ± 1.8 µM; in data set [2] it was 51 ± 11.7 µM; in data set [3], 47 ± 16.8 µM; in data set [4] it was 28 ± 7.5 µM; in data set [6], 58 ± 1.9 µM. For the same compound, in data set [3], the “SI (HT-29)” value was 1.7. Also, the “SI (HepG2)” value in data set [4] was determined as 2.9.
With `O[C@H](Cn1cc(Cn2ccc3c(Cl)ncnc32)nn1)c1ccccc1` [Compound (S)-41b, (S)-4-Chloro-7-((1-(2-hydroxy-2-phenylethyl)-1H-1,2,3-triazol-4-yl)methyl)-7H-pyrrolo[2,3-d]pyrimidine], the IC50 in data set [1] was determined as 58 ± 3.1 µM; in data set [2], 49 ± 18.5 µM; in data set [3], 41 ± 5.6 µM; in data set [4], 41 ± 12.4 µM; in data set [6], 45 ± 7.2 µM. Further, in data set [2], the “SI (CFPAC-1)” value is 1.2. The “SI (MCF-7)” value in data set [6] was determined as 1.3.
Consider `O[C@H](Cn1cc(Cn2ccc3c(Cl)ncnc32)nn1)c1ccc(F)cc1` [Compound (S)-42b, (S)-4-Chloro-7-((1-(2-hydroxy-2-(4-fluorophenyl)ethyl)-1H-1,2,3-triazol-4-yl)methyl)-7H-pyrrolo[2,3-d]pyrimidine], for which the IC50 stood at 73 ± 2.4 µM in data set [1]; 13 ± 2.7 µM in data set [2]; 33 ± 0.2 µM in data set [3]; 49 ± 2 µM in data set [4]; 41 µM in data set [6]. The “SI (CFPAC-1)” value in data set [2] amounted to 5.6. Besides, the “SI (MCF-7)” value in data set [6] is on record as 1.8.
Regarding `O[C@H](Cn1cc(Cn2ccc3c(Cl)ncnc32)nn1)c1ccc(Cl)cc1` [Compound (S)-43b, (S)-4-Chloro-7-((1-(2-hydroxy-2-(4-chlorophenyl)ethyl)-1H-1,2,3-triazol-4-yl)methyl)-7H-pyrrolo[2,3-d]pyrimidine], the IC50 in data set [1] is 41 ± 1.1 µM; in data set [2], 31 ± 5.3 µM; in data set [3] it was 33 ± 7.8 µM; in data set [4], 21 ± 0.8 µM; in data set [6], 33 ± 5.8 µM. Also, the “SI (CFPAC-1)” value in data set [2] worked out at 1.3. In addition, in data set [6], the “SI (MCF-7)” value was 1.2.
Turning to `O[C@H](Cn1cc(Cn2ccc3c(Cl)ncnc32)nn1)c1ccc(C(F)(F)F)cc1` [Compound (S)-45b, (S)-4-Chloro-7-((1-(2-hydroxy-2-(4-(trifluoromethyl)phenyl)ethyl)-1H-1,2,3-triazol-4-yl)methyl)-7H-pyrrolo[2,3-d]pyrimidin], the IC50 stood at 43 ± 3.9 µM in data set [1]; 43 ± 10.8 µM in data set [2]; 31 ± 2.2 µM in data set [3]; 23 ± 2.3 µM in data set [4]; 26 ± 8.5 µM in data set [6]. The “SI (CFPAC-1)” value in data set [2] turned out to be 1.0. For the same compound, the “SI (MCF-7)” value in data set [6] was determined as 1.7.
